In patent publication US8435586B2, “Use of alkoxylated flavones to intensify the sensory impression of alcohol” (Symrise AG, priority 2007, dated 2013):

Test system: expert panel
Assay: Tasting of ethanol and HMF-containing mixtures by an expert panel (5% sucrose solution)
Format: in vivo, human
Description: The test matrix used was a 5% sucrose solution having alcohol contents of 4 and 10% by volume respectively. Added to each of the two sucrose solutions were • a) nothing, • b) 2 ppm of HMF87 from Example 1, • c) 2 ppm of HMF99 from Example 1, • d) 5 ppm of HMF87 from Example 1 and • e) 5 ppm of HMF99 from Example 1.
All of these solutions were tasted by an expert panel consisting of five experts in each case.

Compound: COc1ccc(-c2oc3c(OC)c(OC)c(OC)c(OC)c3c(=O)c2OC)cc1OC [HMF99, 3,3′,4′,5,6,7,8-heptamethoxyflavone]
- difference between HMF87 and HMF99 in intensification of the alcohol impression (2 and 5 ppm, 4 and 10% by volume alcohol): no significant difference

Compound: COc1ccc(-c2oc3c(OC)c(OC)c(OC)c(OC)c3c(=O)c2OC)cc1OC [HMF, 3,3′,4′,5,6,7,8-heptamethoxyflavone]
- intensification of the alcohol impression compared with the samples without HMF (2 or 5 ppm of HMF87 or HMF99, 4 and 10% by volume alcohol, five experts): highly significant intensification of the alcohol impression
